Our source for the melting point values is a melting point compilation (Tetko et al.).

Starred links: 1 amine or outer side, 2 acyl side, 3 side chain; linkers in the order of their positions; H or OH if unused. Positions of bridges follow the written chain, without caps; N, C: chain ends. Non-standard residues stand in square brackets, D forms with d. Residues, ends and D or L forms follow the SMILES beside them. *: point of attachment. X7 = CCC(C)C(N[*:1])C(O)CC(=O)OC(C(C)C)C(O)C(C)C(=O)[*:2]; NMeY = CN[CH](Cc1ccc(O)cc1)C(=O)O; NMeL = CN[CH](CC(C)C)C(=O)O; Boc = CC(C)(C)OC(=O)*; Bn = c1ccc(C*)cc1

In general, melting point refers to the temperature of the solid-liquid transition.

`CCN(C(=O)NC)C1C(Cl)=C(OC2=C(Cl)C(N(CC)C(=O)NC)C(c3ccccc3C(F)(F)F)([N+](=O)[O-])C=C2)C=CC1(c1ccccc1C(F)(F)F)[N+](=O)[O-]` (configuration not stated): the melting point was determined as 128 °C.

In the case of `CC1(C)CC(C(O)CNc2nc(NCc3ccc(CNc4nc(NCC(O)C5CC(C)(C)NC(C)(C)C5)nc(NCC(O)C5CC(C)(C)NC(C)(C)C5)n4)cc3)nc(NCC(O)C3CC(C)(C)NC(C)(C)C3)n2)CC(C)(C)N1` (configuration not stated), the melting point was in the range of 151 to 156 °C.

`CC(C)(C)c1cc2c(c(C(C)(C)C)c1)OP(OP1Oc3c(cc(C(C)(C)C)cc3C(C)(C)C)Cc3cc(C(C)(C)C)cc(C(C)(C)C)c3O1)Oc1c(cc(C(C)(C)C)cc1C(C)(C)C)C2`: the melting point was 249 to 252 °C.

For the compound `Cc1cc(CNC(=O)c2nc(N3CCOCC3)n(C)c(=O)c2O)ccc1F`, the melting point lay in the range of 182 to 185 °C.

Take `CCSC(=O)N(CC(C)C)CC(C)C`: the melting point was 6 °C.

The compound `CC(C)C(NC(=O)N(C)Cc1ccccn1)C(=O)NC(Cc1ccccc1)C(O)C(O)C(Cc1ccccc1)NC(=O)C(NC(=O)N(C)Cc1nccs1)C(C)C` (configuration not stated) displayed a melting point of 96 to 97 °C.

`[C-]#[N+]C(C)C(=O)N(c1ccccc1)C(C)C` (configuration not stated) had a melting point of 47 to 50 °C.

In the case of `O=P(Oc1c(Br)cc(Br)cc1Br)(Oc1c(Br)cc(Br)cc1Br)Oc1c(Br)cc(Br)cc1Br`, the melting point was in the range of 223 to 226 °C.

Consider `CC(C)CCCC(C)C1CCC2C3CC=C4CC(N(CCCNC(=O)CCCCCNc5ccc([N+](=O)[O-])cc5[N+](=O)[O-])S(=O)(=O)c5ccccc5[N+](=O)[O-])CCC4(C)C3CCC12C` (configuration not stated), for which the melting point is 80 to 82 °C.

As for `CC(C)CCCC(C)C1CCC2C3CC=C4CC(NCCCCC(=O)NCCC(=O)NCCC(=O)NCCCCC(C(=O)O)N(CC(=O)O)CC(=O)O)CCC4(C)C3CCC12C` (configuration not stated), the melting point lay within 101 to 103 °C.

`COc1c(Oc2nc3ccccc3o2)c(C)c(C)n(Cc2ccccc2)c1=O` showed a melting point of 197 to 198 °C.

`O=C(Oc1c(I)cc(I)cc1I)C(F)(F)C(F)(F)C(F)(F)C(F)(F)C(F)(F)C(F)(F)F` showed a melting point of 71 to 73 °C.

On to `CCCCCCCCOc1ccc(NS(=O)(=O)c2cc(C(C)(C)CC(C)(C)C)ccc2OCCCCCCCC)cc1S(=O)(=O)NCC(C)c1nn2nc(C)c(Cl)c2[nH]1` (configuration not stated), for which the melting point was 129 to 131 °C.

`CC(C)CCCC(C)C1CCC2C3CC=C4CC(N(CCCNC(=O)CCNC(=O)CNC(=O)OCC5c6ccccc6-c6ccccc65)C(=O)OC(C)(C)C)CCC4(C)C3CCC12C` (configuration not stated) registered a melting point of 112 to 114 °C.

`Cc1cccc(-c2cc3ccccc3c(Cl)n2)n1` registered a melting point of 142 to 144 °C.

As to `CC[C@H](C)CNC(=O)[C@@H](C[C@H](O)[C@H](CC1CCCCC1)NC(=O)[C@H](Cc1cscn1)NC(=O)[C@H](Cc1cccc2ccccc12)NC(=O)CN1CCOCC1)C(C)(C)O`, the melting point was 141 to 143 °C.

Take `CCCCCCCCCCOc1cc2c3c(c4cc(OCCCCCCCCCC)c(OCCCCCCCCCC)cc4c2cc1OCCCCCCCCCC)C(=O)C=CC3=O`: the melting point is 86 to 87 °C.

The compound `CCCCCCCCCCCCCCCCCCOc1nc(OCCCCCCCCCCCCCCCCCC)nc(Oc2cc(-c3ccccc3)c(O)c(-c3ccccc3)c2)n1` came in with a melting point of 33 °C.

On to `CCCCCCCCCCCCCCCCCCSCCOP(=O)(Cc1cc(C(C)(C)C)c(O)c(C)c1C)OCCSCCCCCCCCCCCCCCCCCC`, for which the melting point was in the range of 71 to 73 °C.

`O=S(=O)(CCCCCOc1ccc(C2=C(c3ccc(OC4CCCCO4)cc3)CCCc3cc(OC4CCCCO4)ccc32)cc1)CCCC(F)(F)C(F)(F)F` (configuration not stated) returned a melting point of 108 to 110 °C.

`COC(=O)C(C)NC(=O)C(COCc1ccccc1)NC(=O)C(Cc1ccc(OCc2ccccc2)cc1)NC(=O)C(Cc1c[nH]c2ccccc12)NC(=O)OC(C)(C)C` (configuration not stated) (Boc-WY(Bn)S(Bn)A-OMe; configuration not given here) came in with a melting point of 178 to 182 °C.

As for `CC1(C)CC(C(O)CNc2nc(NCCCCCCNc3nc(NCC(O)C4CC(C)(C)NC(C)(C)C4)nc(NCC(O)C4CC(C)(C)NC(C)(C)C4)n3)nc(NCC(O)C3CC(C)(C)NC(C)(C)C3)n2)CC(C)(C)N1` (configuration not stated), the melting point lay in the range of 165 to 168 °C.

For the compound `CCOC(=O)c1cc2cc(OC)cc(NS(=O)(=O)c3cccs3)c2[nH]1`, the melting point is 158 to 159 °C.

`CC(=O)OC1C(=O)C2(C)C(O)CC3OCC3(OC(C)=O)C2C(OC(=O)c2ccccc2)C23OC(=O)OC2C(OC(=O)C(O)C(CC(C)C)NC(=O)OC(C)(C)C)C(C)=C1C3(C)C` (configuration not stated): the melting point came to 159 °C.

`O=C(NCC(O)CO)c1c(I)c(C(=O)NCC(O)CO)c(I)c(N2C(=O)COCC2CO)c1I` (configuration not stated) returned a melting point of 227 to 230 °C.

`O=[N+]([O-])c1cc(Sc2ccc(-c3c(S(=O)c4ccc(Cl)c([N+](=O)[O-])c4-c4ccc(Sc5ccc(Cl)c([N+](=O)[O-])c5)cc4)ccc(Cl)c3[N+](=O)[O-])cc2)ccc1Cl` gave a melting point of 144 to 146 °C.

On to `CCOC(=O)OC1=C(c2cc(C)ccc2C)C(=O)NC1CC1CCS(=O)(=NC(=O)C(F)(F)F)CC1` (configuration not stated), for which the melting point was 87 to 89 °C.

As to `CCNC(Cc1cc(I)c(Oc2cc(I)c(O)c(I)c2)c(I)c1)C(=O)O` (configuration not stated), the melting point fell in the range of 191 to 193 °C.

`COc1ccc(C(=CC2(C=C(c3ccc(OC)cc3)c3ccc(N4CCCC4)cc3)OC(=O)c3c(Cl)c(Cl)c(Cl)c(Cl)c32)c2ccc(N3CCCC3)cc2)cc1` (configuration not stated): the melting point lay in the range of 159 to 161 °C.

For `O=C(Nc1cc(Cl)cc(Cl)c1)c1c(O)ccc2ccccc12`, the melting point was 246 to 248 °C.

`CC(C)CC1C(=O)OC(Cc2ccc(OCc3ccco3)cc2)C(=O)N(C)C(CC(C)C)C(=O)OC(C)CN(C)C(CC(C)C)C(=O)OC(Cc2ccc(OCc3ccco3)cc2)C(=O)N(C)C(CC(C)C)C(=O)OC(C)CN1C` (configuration not stated) registered a melting point of 116 to 119 °C.

Compound `CC1(C)CC(N(c2nc(N(C3CC(C)(C)N(O)C(C)(C)C3)C3CC(C)(C)N(O)C(C)(C)C3)nc(N(C3CC(C)(C)N(O)C(C)(C)C3)C3CC(C)(C)N(O)C(C)(C)C3)n2)C2CC(C)(C)N(O)C(C)(C)C2)CC(C)(C)N1O` gave a melting point of 258 to 261 °C.

Turning to `C=CCOC1C(NC(C)=O)C(OCc2ccccc2)OC(COCc2ccccc2)C1OC1(N)OC(COCc2ccccc2)C(OCc2ccccc2)C(OCc2ccccc2)C1C(=O)OCC(Cl)(Cl)Cl` (configuration not stated), the melting point lay in the range of 186 to 188 °C.

Compound `CCC(C)C1NC(=O)C(NC(=O)C(CC(C)C)NC)C(C)OC(=O)C(Cc2ccc(OC)cc2)N(C)C(=O)C2CCCN2C(=O)C(CC(C)C)NC(=O)C(C)C(O)C(C(C)C)OC(=O)CC1O` (configuration not stated) (H-[NMeL]T[X7]LP[NMeY](Me); ester 2-C; configuration not given here) displayed a melting point of 124 to 127 °C.

Turning to `COc1cc(C2c3cc4c(cc3C(NC(=O)CNCCCCN(CCCNC(=O)OCc3ccccc3)C(=O)OCc3ccccc3)C3COC(=O)C23)OCO4)cc(OC)c1O` (configuration not stated), the melting point was found to be 199 °C.

Consider `O=c1c(CCCc2cccnc2)cc2cccnc2n1-c1cccc([N+](=O)[O-])c1`, for which the melting point is 172 to 173 °C.

As for `O=[N+]([O-])c1ccccc1N1CCc2cc(Br)ccc21`, the melting point is 112 to 114 °C.

`CC(C)(C)c1cc(CCC(=O)OCC(COCC(COC(=O)CCc2cc(C(C)(C)C)c(O)c(C(C)(C)C)c2)OC(=O)CCc2cc(C(C)(C)C)c(O)c(C(C)(C)C)c2)OC(=O)CCc2cc(C(C)(C)C)c(O)c(C(C)(C)C)c2)cc(C(C)(C)C)c1O` (configuration not stated) came in with a melting point of 57 °C.

The compound `CCCCCCCCCCCCCCCCCCOC(=O)c1cc(C(C)(C)C)c(O[Si](C)(C)Oc2c(C(C)(C)C)cc(C(=O)OCCCCCCCCCCCCCCCCCC)cc2C(C)(C)C)c(C(C)(C)C)c1` gave a melting point of 68.5 to 69.5 °C.

`O=S1(=O)c2ccccc2N(c2ccccc2)c2ccc(C=Cc3ccc(-c4ccc(C=Cc5ccc6c(c5)S(=O)(=O)c5ccccc5N6c5ccccc5)cc4)cc3)cc21` showed a melting point of 392 °C.

In the case of `O=C(NCCCN1CCOCC1)c1ccc(-c2ccc(Br)cc2)o1`, the melting point fell in the range of 83 to 100 °C.

The compound `CC(C)CCCC(C)C1CCC2C3CC=C4CC(N(CCCNC(=O)CCNC(=O)CCCCCNc5ccc([N+](=O)[O-])c6nonc56)S(=O)(=O)c5ccccc5[N+](=O)[O-])CCC4(C)C3CCC12C` (configuration not stated) had a melting point of 86 to 89 °C.

As for `CCCCN(CCCC)c1ccc(C=Cc2ccc(C=CC3=C(C#N)C(=C(C#N)C#N)OC3(C)C(F)(F)F)s2)c(O[Si](c2ccccc2)(c2ccccc2)C(C)(C)C)c1` (configuration not stated), the melting point is 186 to 187 °C.

`Cc1ccc(C(=O)OCCN(C)C)cc1-n1c(C)cc(OCc2ccc(F)cc2CNC(=O)Nc2cc(C(C)(C)C)nn2-c2cccc(OCCO)c2)c(Cl)c1=O` showed a melting point of 158 to 160 °C.

In the case of `CCCCc1ccc(C(=O)Nc2ccc(OC(=O)c3ccc(CCCC)cc3)c3c2C(=O)c2c(NC(=O)c4ccc(CCCC)cc4)cc(C)c(OC(=O)c4ccc(CCCC)cc4)c2C3=O)cc1`, the melting point is above 250 °C.

`CCCCCCCCCCCCCCCCCCN(CCCCCCCCCCCCCCCCCC)C(=O)c1cc(NS(=O)(=O)c2cnc(Cl)c(Cl)c2)c2ccccc2c1O` registered a melting point of 88 to 89 °C.

`O=C(OCc1ccc(OCCCCCCCCCCC2c3c(c4ccccc4c4ccccc34)-c3c2c2ccccc2c2ccccc32)cc1)C(=CNC1CC1)C(=O)c1cc(F)c(F)cc1F` gave a melting point of 49 to 51 °C.

In the case of `COC(=O)[C@H](CC(C)C)NC(=O)CNC(=O)[C@H](Cc1ccc(O)cc1)NC(=O)[C@H](CO)NC(=O)[C@H](Cc1c[nH]c2ccccc12)NC(=O)[C@H](Cc1c[nH]cn1)NC(=O)[C@@H]1CCC(=O)N1`, the melting point is 213 to 215 °C.

As to `O=C(O)Cc1cc(I)c(Oc2cc(I)c(OCC3CO3)c(I)c2)c(I)c1` (configuration not stated), the melting point is 176 °C.

`Cc1cc(C(C)(C)C)c(O)c(C)c1CCCCCCCCCCCCCCCCCCCOCCCCCCCCCCCCCCCCCCCc1c(C)cc(C(C)(C)C)c(O)c1C` returned a melting point of 52 °C.

`[C-]#[N+]C(c1cc(Br)c(OC)c(OC)c1)S(=O)(=O)c1ccc(C)cc1` (configuration not stated) returned a melting point of 109 to 110 °C.

`CC(=O)OC(COc1ccc(C(C)(C)c2ccc(OCC(CN3C(=O)NC4(CC(C)(C)N(C(C)=O)C(C)(C)C4)C3=O)OC(C)=O)cc2)cc1)CN1C(=O)NC2(CC(C)(C)N(C(C)=O)C(C)(C)C2)C1=O` (configuration not stated) displayed a melting point of 147 to 149 °C.
